From patent US11603570B2, “Methods for the detection and treatment of leukemias that are responsive to DOT1L inhibition” (MEMORIAL SLOAN KETTERING CANCER CENTER, priority 2013, dated 2023)
“Also recorded” adds a separate entry of the source.

Columns and labels:
REH = test: Cell proliferation, REH; assay type: cell-based; conditions: Homo sapiens; non-MLL-translocated line REH; FIG. 2
[1] = tested on: MLL-translocated cell lines; test: Proliferation of MLL-translocated cell lines; conditions: versus MLL-germline lines; FIG. 2
H3K79me2 [2] = test: H3K79me2 Western blot in MLL-AF9 transformed cells; assay type: cell-based, mouse; conditions: 10 μM, 10 days, FIG. 8A
[3] = tested on: Npm1^cA/−Flt3^ITD/+ AML cells; test: Survival of C57/BL6 mice injected with pre-treated Npm1^cA/−Flt3^ITD/+ cells
Jurkat [4] = test: Cell proliferation, Jurkat; assay type: cell-based; conditions: Homo sapiens; non-MLL-translocated line Jurkat; FIG. 2
[5] = tested on: HOXA7, HOXA9, HOXA10, and MEIS1; test: HOX/MEIS1 mRNA expression in NUP98-NSD1 transformed cells; assay type: cell-based, mouse; conditions: 10 μM, 7 day treatment; FIG. 5B
Excerpt: FIG. 5B is a histogram showing mRNA expression of HOXA7, HOXA9, HOXA10, and MEIS1 relative to GAPDH (ddCT).

Jurkat [6] = conditions: Daigle, 2011; cited from earlier work
697 = test: Cell proliferation, 697; assay type: cell-based; conditions: Homo sapiens; non-MLL-translocated line 697; FIG. 2
H3K79me2 [7] = conditions: 0.048, 0.195, 0.781, 3.12, and 12.5 μm; FIG. 1A; cited from earlier work
EOL-1 = test: Proliferation of MLL-PTD cell line EOL-1; assay type: cell-based, human; conditions: 10 μM, 10-day period
[8] = tested on: HOXA9/MEIS1 transformed cells; test: Sensitivity of HOXA9/MEIS1 transformed cells; assay type: cell-based, murine
MV4-11 = conditions: Daigle, 2011; cited from earlier work
OCI-AML3 [9] = test: Differentiation marker CD11b in OCI-AML3 cells; conditions: 10 μM, days 4, 7, and 10; FIG. 11B
[10] = tested on: Npm1^cA/+Flt3^ITD/+ AML cells; test: Colony formation of Npm1^cA/+Flt3^ITD/+ AML cells; conditions: 10 μM, after primary and secondary transplantation, FIG. 12A, B
[11] = tested on: MLL-translocated cell lines; conditions: Daigle; cited from earlier work
HOXA9 and MEIS1 = conditions: cited from earlier work
[12] = tested on: HOXA9, HOXA10, MEIS1, HOXB3, HOXB4 and HOXB5 mRNA; test: HOX gene qPCR in Npm1^cA/+Flt3^ITD/+ AML cells; assay type: cell-based, mouse; conditions: 10 μM, FIG. 14B
Procedure: (§1) The effect of DOT1L inhibition on the levels of various HOX genes and HOX-associated genes was evaluated using qPCR.

H3K79 methylation = conditions: MLL-translocated leukemia cell lines; cited from earlier work
KOPN-8 = test: Cell proliferation, KOPN-8; assay type: cell-based; conditions: Homo sapiens; MLL-translocated line KOPN-8; FIG. 2
OCI-AML3 [13] = test: Apoptosis and cell cycle in OCI-AML3 cells
[14] = tested on: HOXA9, HOXA10, MEIS1, HOXB3, HOXB4 and HOXB5 mRNA; test: HOX gene qPCR in Npm1^cA/+Rosa^SB/+ AML cells; assay type: cell-based, mouse; conditions: 10 μM, FIG. 14A
Procedure: as §1

[15] = tested on: MLL germline leukemia cell lines; test: Proliferation of MLL germline leukemia cell lines; conditions: 10 μM; cell lines that do not show elevated HOXA gene expression; FIG. 2
OCI-AML3 [16] = test: Proliferation of OCI-AML3 (NPM1 mutant) cells; assay type: cell-based, human
Procedure: (§2) Apoptosis was assessed by staining cells with Annexin V 10 days after treatment. The extent of apoptosis was compared to that found in MLL-AF9 transformed cells treated in a similar fashion.
(§3) Cell numbers were assessed at multiple time points after treatment was initiated. […] Evidence of differentiation was assessed after DOT1L inhibition via characterization of cell surface marker expression—such as CD11b and CD15 expression, both of which are induced upon differentiation of myelomonocytic leukemia cells.
(§4) MTT assays were performed on day 11.

[17] = tested on: MLL-AF9 transformed cells; test: Cell cycle arrest and apoptosis of MLL-AF9 transformed cells; assay type: cell-based, murine
[18] = tested on: MLL germline leukemia cell lines; conditions: cited from earlier work
OCI-AML2 = test: Proliferation of OCI-AML2 (DNTM3A mutant) cells; assay type: cell-based, human
Procedure: as §2, §3, §4

[19] = tested on: Npm1^cA/+Rosa^SB/+ AML cells; test: Colony formation of Npm1^cA/+Rosa^SB/+ AML cells; conditions: 10 μM; after primary and secondary transplantation; FIG. 12A, B
other methyltransferases = conditions: in words; FIG. 1B; cited from earlier work
THP-1 = test: Cell proliferation, THP-1; assay type: cell-based; conditions: Homo sapiens; MLL-translocated line THP-1; FIG. 2
SEMK2 = test: Cell proliferation, SEMK2; assay type: cell-based; conditions: Homo sapiens; MLL-translocated line SEMK2; FIG. 2
HL-60 = test: Cell proliferation, HL-60; assay type: cell-based; conditions: Homo sapiens; non-MLL-translocated line HL-60; FIG. 2

CC(C)N(CCCNC(=O)Nc1ccc(C(C)(C)C)cc1)C[C@H]1O[C@@H](n2ccc3c(N)ncnc32)[C@H](O)[C@@H]1O [EPZ004777, 1-(3-((((2R,3S,4R,5R)-5-(4-Amino-7H-pyrrolo[2,3-d]pyrimidin-7-yl)-3,4-dihydroxytetrahydrofuran-2-yl)methyl)(isopropyl)amino)propyl)-3-(4-(tert-butyl)phenyl)urea]
IC50 (REH): 14000 nM
inhibition of proliferation of MLL-translocated cell lines [1]: selectively inhibits
global H3K79me2 level (Western blotting) (H3K79me2 [2]): completely abrogated; also recorded: decrease
day on which animals start dying ([3]; cells treated with 10 μM, FIG. 13 A): 31 days
survival time ([3]; treatment of the AML cells with the DOT1L inhibitor): prolonged survival time
IC50 (Jurkat [4]): > 50000 nM
mRNA expression of HOXA7, HOXA9, HOXA10, and MEIS1 [5]: substantial decrease; also recorded: strong inhibitory effect
growth of MLL-germline Jurkat cells (Jurkat [6]): unaffected
IC50 697: 35000 nM
H3K79me2 histone methylation (H3K79me2 [7]): inhibited
proliferation (EOL-1): significantly inhibited
sensitivity to DOT1L inhibition [8]: insensitive
growth of MV4-11 leukemia cells (MV4-11): exquisitely sensitive
differentiation, cell surface marker CD11b expression (OCI-AML3 [9]): increased differentiation
colony formation potential [10]: significant reduction; also recorded: reduce the colony formation potential
colony formation potential ([10]; listed as EPZ00477): significant reduction
antiproliferative, differentiating, and apoptotic activities toward leukemia cells harboring MLL fusions [11]: highly selective
MLL fusion driven gene expression, including HOXA9 and MEIS1 (HOXA9 and MEIS1): transcriptional repression; also recorded: dose-dependent inhibition
HOXA9, HOXA10, MEIS1, HOXB3, HOXB4 and HOXB5 mRNA levels [12]: decreased
HOXA9, HOXA10, MEIS1, HOXB3, HOXB4 and HOXB5 mRNA levels ([12]; listed as EPZ00477): significant decrease
concentration range inhibiting H3K79 methylation (H3K79 methylation): mid-nM range
IC50 (KOPN-8): 620 nM
cell cycle status by flow cytometry (OCI-AML3 [13]): Sub G1 accumulation
apoptotic cells (Annexin V staining) (OCI-AML3 [13]; 10 μM, 4, 7, or 10 days, FIG. 11A): tremendous increase in apoptotic cells; also recorded: apoptosis
HOXA9, HOXA10, MEIS1, HOXB3, HOXB4 and HOXB5 mRNA levels [14]: decreased
HOXA9, HOXA10, MEIS1, HOXB3, HOXB4 and HOXB5 mRNA levels ([14]; listed as EPZ00477): significant decrease
influence on proliferation [15]: does not influence
proliferation / cell number versus DMSO (OCI-AML3 [16]; 10 μM, compared with MLL-translocated line (Molm-13), FIG. 7C, 10): as sensitive; also recorded: equally, if not more sensitive; also recorded: dramatically inhibited
IC50 (OCI-AML3 [16]; Homo sapiens, OCI-AML-3, 264 h, MTT assays on day 11, concentrations up to 10 μM): 150 nM
response to DOT1L inhibition [17]: cell cycle arrest and apoptosis
anti-proliferative effect ([18]; MLL germline leukemia cell lines): no anti-proliferative effect
factor by which leukemic cells lacking MLL fusions are less sensitive [18]: approximately 100
cell number versus DMSO (OCI-AML2; 10 μM, compared with Molm-13, FIG. 10): equally, if not more sensitive; also recorded: sensitive
IC50 (OCI-AML2; Homo sapiens, OCI-AML2, 264 h, MTT assays on day 11, concentrations up to 10 μM): 150 nM
colony formation potential [19]: significant reduction
specificity for DOT1L / H3K79me as compared to other methyl transferases (other methyltransferases): highly specific; also recorded: remarkable specificity
IC50 (THP-1): 3000 nM
IC50 (SEMK2): 1700 nM
IC50 (HL-60): > 50000 nM
